The values below come from patent US9370508B2, “Imidazoquinolines as dual lipid kinase and mTOR inhibitors” (NOVARTIS AG, priority 2007, dated 2016).

In test [1] the test system is ribosomal protein S6 phosphorylation. Description: 96-well in-cell western assay of ribosomal protein S6 phosphorylation in HeLa cells. Format: cell-based. Conditions: Homo sapiens, 1 h, 60 min stimulation with nutrients in the presence or absence of 100 nM insulin, anti-phospho(Ser235-236)S6, read-out: induced phosphorylation of S6, mean IC50. As for the experimental part:
A 96-well “in-cell western” assay is used to quantitate the levels of ribosomal protein S6 phosphorylation following treatment of HeLa cells with compounds. HeLa cells are seeded on to 96-wells plates (5000 cells/well), cultured for 72 h prior to serum deprivation for 18 h, in a humidified environment of 5% CO2 at 37° C. throughout. Thereafter, they are incubated in 200 μL of starve-medium for 180 min prior to a 60 min stimulation with 200 μL of test-medium. All solutions are pre-warmed for 30 min; the 96-well plates are sealed (Millipore) and incubated in a non-CO2 incubator at 37° C. during the starvation and stimulation protocol. […] After a 48 h blocking step in Tris buffered saline pH=7.2 containing 0.1% Triton-X100 and 0.1% bovine serum albumin, at 4° C., fixed cells are incubated overnight at 4° C. with the anti-phospho(Ser235-236)S6 primary antibody (Cell Signaling Technologies #2211 [can be substituted with Cell Signaling Technologies #2215 to quantitate S6 phosphorylation at Ser240-244]; 50 μL at 1:300 in blocking-solution), washed (8×200 μL TBS) before 100 μL of europium-labeled anti-rabbit secondary antibody (Perkin-Elmer; 2.4 μg/mL) is added for 90 min at room temperature in the dark. After a final wash (8×200 μL TBS), 100 μL of Delphia™ Enhancement-solution is added to each well and the fluorescence quantified 120 min later using an Envision 2101 (Perkin-Elmer). […]

A further test has as its target T1, mTOR enzyme (Homo sapiens, UniProt P42345).
T1 construct: purchased Calbiochem CBA055
Description: K-LISA mTOR activity kit biochemical assay. The following applies: GST-S6K1 substrate, 100 μM ATP, 30 minutes at 30° C., anti-phospho Thr389 detection; read-out: mTOR kinase activity, mean IC50.

Structures are written as SMILES. pIC50: −log10 of the molar value.

Description for mTOR enzyme: This mixture is then transferred to a glutathione-coated 96-well plate pre-incubated with GST-S6K1 recombinant protein. Kinase reactions are initiated by adding kinase buffer containing 100 μM ATP and are incubated for 30 minutes at 30° C. mTOR activity is quantitated using an anti-phospho Thr389-HRP conjugate detection system. Wortmannin served as control compound for the mTOR kinase activity assay.

With `Cn1c(=O)n(-c2ccc(C(C)(C)C#N)cc2)c2c3cc(-c4cnc5ccccc5c4)ccc3ncc21` [compound 1, 2-Methyl-2-[4-(3-methyl-2-oxo-8-quinolin-3-yl-2,3-dihydro-imidazo[4,5-c]quinolin-1-yl)-phenyl]-propionitrile], the pIC50 in test [1] is 7.77. As for `COc1ccc(-c2ccc3ncc4c(c3c2)n(-c2ccc(N3CCNCC3)c(C(F)(F)F)c2)c(=O)n4C)cn1` [compound 2, 8-(6-Methoxy-pyridin-3-yl)-3-methyl-1-(4-piperazin-1-yl-3-trifluoromethyl-phenyl)-1,3-dihydro-imidazo[4,5-c]quinolin-2-one], the pIC50 is 8.85 at mTOR enzyme and 7.96 in test [1].

By pIC50 is commonly meant −log10 of the IC50, conventionally taken in molar units.
